Broadly, the MIC is the smallest concentration in the dilution series that meets the test's criterion for growth inhibition. A word on the IC50: it is the concentration that gives 50% inhibition.

In one assay the test system is Enterobacter cloacae. Description: Antimicrobial activity against Enterobacter cloacae ATCC 13047 after 18 to 20 hrs by microbroth dilution method. It is filed as functional. As to conditions: subsp. cloacae ATCC 13047.
Assay [1] deals with Escherichia coli. Description: Antimicrobial activity against Escherichia coli ATCC 35218 expressing TEM-1 beta lactamases after 18 to 20 hrs by microbroth dilution method. It is filed as functional. On the technique in general: In broth dilution the organism is exposed to a series of concentrations in liquid medium.
In another assay the test system is Enterococcus faecalis. In words: Antimicrobial activity against Enterococcus faecalis ATCC 33186 after 18 to 20 hrs by microbroth dilution method. Format: functional.
For assay [2], the system named is Klebsiella pneumoniae. Description: Antimicrobial activity against Klebsiella pneumoniae ATCC 33495 after 18 to 20 hrs by microbroth dilution method. It is filed as functional.
Another assay has as its system Streptococcus pyogenes. In words: Antimicrobial activity against Streptococcus pyogenes ATCC 700294 after 18 to 20 hrs by microbroth dilution method. Format: functional. As to conditions: M1 GAS.
The subject of assay [3] is Staphylococcus aureus. Description: Antimicrobial activity against methicillin-susceptible Staphylococcus aureus NRS70 after 18 to 20 hrs by microbroth dilution method. It is filed as functional.
A further assay concerns Streptococcus pneumoniae. Description: Antimicrobial activity against Streptococcus pneumoniae R6 after 18 to 20 hrs by microbroth dilution method. It is filed as functional.
Assay [4] concerns Stenotrophomonas maltophilia. In words: Antimicrobial activity against Stenotrophomonas maltophilia ATCC 700475 after 18 to 20 hrs by microbroth dilution method. It is filed as functional.
The next assay deals with Proteus mirabilis. In words: Antimicrobial activity against Proteus mirabilis ATCC 25933 after 18 to 20 hrs by microbroth dilution method. It is filed as functional.
For the next assay, the system named is Bacillus anthracis. Description: Antimicrobial activity against Bacillus anthracis Sterne 34F2 after 18 to 20 hrs by microbroth dilution method. It is filed as functional.
Assay [5] relates to Escherichia coli. In words: Antimicrobial activity against Escherichia coli isolate SJ 3 after 18 to 20 hrs by microbroth dilution method. Format: functional.
For assay [6], the system named is Escherichia coli. Description: Antimicrobial activity against Escherichia coli ATCC 25922 after 18 to 20 hrs by microbroth dilution method. It is filed as functional.
Assay [7] has as its system Klebsiella pneumoniae. Description: Antimicrobial activity against Klebsiella pneumoniae isolate SJ 4 after 18 to 20 hrs by microbroth dilution method. It is filed as functional.
In a further assay the test system is Acinetobacter baumannii. In words: Antimicrobial activity against Acinetobacter baumannii ATCC 19606 after 18 to 20 hrs by microbroth dilution method. It is filed as functional. As to conditions: ATCC 19606 = CIP 70.34 = JCM 6841.
For assay [8], the system named is Staphylococcus aureus. Description: Antimicrobial activity against methicillin-susceptible Staphylococcus aureus ATCC 29213 after 18 to 20 hrs by microbroth dilution method. Format: functional.
Another assay deals with Bacillus cereus. In words: Antimicrobial activity against Bacillus cereus ATCC 14579 after 18 to 20 hrs by microbroth dilution method. It is filed as functional.
In assay [9] the test system is Escherichia coli. Description: Antimicrobial activity against Escherichia coli BW25113 after 18 to 20 hrs by microbroth dilution method. Format: functional.
The test system of assay [10] is Klebsiella pneumoniae. Description: Antimicrobial activity against Klebsiella pneumoniae isolate SJ 3 after 18 to 20 hrs by microbroth dilution method. Format: functional.
Assay [11] relates to Escherichia coli. In words: Antimicrobial activity against Escherichia coli isolate SJ 2 after 18 to 20 hrs by microbroth dilution method. Format: functional.
Assay [12] concerns Escherichia coli. Description: Antimicrobial activity against tolC deficient Escherichia coli JW5503-1 after 18 to 20 hrs by microbroth dilution method. Format: functional.
A further assay has as its system Bacillus subtilis. Description: Antimicrobial activity against Bacillus subtilis ATCC 23857 after 18 to 20 hrs by microbroth dilution method. Format: functional.
Assay [13] deals with Escherichia coli. In words: Antimicrobial activity against Escherichia coli isolate SJ 6 after 18 to 20 hrs by microbroth dilution method. Format: functional.
Assay [14] has as its system Escherichia coli. In words: Antimicrobial activity against Escherichia coli isolate SJ 4 after 18 to 20 hrs by microbroth dilution method. Format: functional.
In assay [15] the test system is Klebsiella pneumoniae. In words: Antimicrobial activity against Klebsiella pneumoniae isolate SJ 2 after 18 to 20 hrs by microbroth dilution method. It is filed as functional.
In assay [16] the test system is Escherichia coli. In words: Antimicrobial activity against Escherichia coli isolate SJ 1 after 18 to 20 hrs by microbroth dilution method. Format: functional.
The next assay concerns Pseudomonas aeruginosa. Description: Antimicrobial activity against Pseudomonas aeruginosa PAO1 after 18 to 20 hrs by microbroth dilution method. Format: functional.
The test system of assay [17] is Escherichia coli. In words: Antimicrobial activity against Escherichia coli isolate SJ 5 after 18 to 20 hrs by microbroth dilution method. It is filed as functional.
For assay [18], the system named is Klebsiella pneumoniae. In words: Antimicrobial activity against Klebsiella pneumoniae isolate SJ 5 after 18 to 20 hrs by microbroth dilution method. It is filed as functional.
The test system of assay [19] is Klebsiella pneumoniae. In words: Antimicrobial activity against Klebsiella pneumoniae isolate SJ 1 after 18 to 20 hrs by microbroth dilution method. Format: functional.
Assay [20] concerns Escherichia coli. Description: Induction of proton motive force collapse in Escherichia coli BW25113 at 100 uM by flow cytometry. It is filed as functional, organism-based. On the technique in general: In flow cytometry, cells or beads pass a laser one at a time.
Another assay concerns HepG2. Description: Cytotoxicity against human HepG2 cells. Format: cell-based.
A further assay relates to Vero. In words: Cytotoxicity against African green monkey Vero cells. Format: cell-based. As to conditions: Chlorocebus sabaeus.
Assay [21] has as its system Staphylococcus aureus. Description: Potency index, ratio of cefaclor MIC to compound MIC for […] Staphylococcus aureus ATCC 29213. Format: functional.
Assay [22] relates to Staphylococcus aureus. In words: Potency index, ratio of cefaclor MIC to compound MIC for methicillin-resistant Staphylococcus aureus NRS70. It is filed as functional.
The subject of assay [23] is Staphylococcus aureus. Description: Potency index, ratio of […] MIC to compound MIC for […] Staphylococcus aureus ATCC 29213. Format: functional.
Assay [24] has as its system Staphylococcus aureus. In words: Potency index, ratio of […] MIC to compound MIC for methicillin-resistant Staphylococcus aureus NRS70. It is filed as functional.

SMILES strings stand for the structures. In brackets after ≈: the same amount, converted by molar mass. Activity calls are given as the source filed them.

Turning to `CC1(C)S[C@@H]2[C@H](NC(=O)[C@H](N)c3ccccc3)C(=O)N2[C@H]1C(=O)O` [AMPICILLIN], the MIC with Enterobacter cloacae was above 200 µg/mL; in the assay on Escherichia coli [1] it was above 200 µg/mL; against Enterococcus faecalis it was 0.78 µg/mL (≈ 2.23 µM); with Klebsiella pneumoniae [2] it was 100 µg/mL (≈ 286 µM); against Streptococcus pyogenes, below 0.2 µg/mL; in the assay on Staphylococcus aureus [3], 25 µg/mL (≈ 71.5 µM). Besides, the minimum inhibitory concentration (MIC) with Streptococcus pneumoniae was below 0.2 µg/mL; in [4] it was 6.25 µg/mL (≈ 17.9 µM); against Proteus mirabilis it was below 0.2 µg/mL; in the assay with Bacillus anthracis, below 0.2 µg/mL; against Escherichia coli [5], above 200 µg/mL; against Escherichia coli [6], 3.13 µg/mL (≈ 8.96 µM). Further, the minimum inhibitory concentration (MIC) with Klebsiella pneumoniae [7] was 100 µg/mL (≈ 286 µM); in the assay on Acinetobacter baumannii, 50 µg/mL (≈ 143 µM); with Staphylococcus aureus [8], below 0.2 µg/mL; in the assay with Bacillus cereus, 25 µg/mL (≈ 71.5 µM); against Escherichia coli [9], 3.13 µg/mL (≈ 8.96 µM); against Klebsiella pneumoniae [10], 100 µg/mL (≈ 286 µM). The MIC against Escherichia coli [11] was above 200 µg/mL; in the assay on Escherichia coli [12], 1.56 µg/mL (≈ 4.46 µM); in the assay with Bacillus subtilis, below 0.2 µg/mL; in the assay with Escherichia coli [13] it was above 200 µg/mL; with Escherichia coli [14] it was above 200 µg/mL; against Klebsiella pneumoniae [15] it was 25 µg/mL (≈ 71.5 µM). Moreover, the MIC with Escherichia coli [16] is above 200 µg/mL; against Pseudomonas aeruginosa, 200 µg/mL (≈ 572 µM); against Escherichia coli [17] it was above 200 µg/mL; in the assay on Klebsiella pneumoniae [18], above 200 µg/mL; against Klebsiella pneumoniae [19], above 200 µg/mL.
As for `CO[C@@]1(NC(=O)CCCC(=O)C2=C(O)[C@@H](CCCNC(=N)N)NC2=O)C(=O)N2C(C(=O)O)=C(CSc3nnnn3C)CS[C@@H]21`, the minimum inhibitory concentration (MIC) with Escherichia coli [1] came to 3.13 µg/mL (≈ 4.8 µM); in the assay on Klebsiella pneumoniae [2] it was 6.25 µg/mL (≈ 9.58 µM); against Proteus mirabilis, 6.25 µg/mL (≈ 9.58 µM); in the assay with Escherichia coli [5], 3.13 µg/mL (≈ 4.8 µM); against Escherichia coli [6], 3.13 µg/mL (≈ 4.8 µM); with Klebsiella pneumoniae [7], 6.25 µg/mL (≈ 9.58 µM). Also, the MIC against Acinetobacter baumannii was above 200 µg/mL; with Escherichia coli [9], 6.25 µg/mL (≈ 9.58 µM); against Klebsiella pneumoniae [10] it was 6.25 µg/mL (≈ 9.58 µM); in the assay on Escherichia coli [11] it was 3.13 µg/mL (≈ 4.8 µM); in the assay on Escherichia coli [12], 6.25 µg/mL (≈ 9.58 µM); against Escherichia coli [13], 100 µg/mL (≈ 153 µM). The minimal inhibitory concentration (MIC) was 25 µg/mL (≈ 38.3 µM) with Escherichia coli [14]; 3.13 µg/mL (≈ 4.8 µM) against Klebsiella pneumoniae [15]; 3.13 µg/mL (≈ 4.8 µM) against Escherichia coli [16]; above 200 µg/mL against Pseudomonas aeruginosa; 12.5 µg/mL (≈ 19.2 µM) against Escherichia coli [17]; 12.5 µg/mL (≈ 19.2 µM) against Klebsiella pneumoniae [18]. The MIC with Klebsiella pneumoniae [19] is 3.13 µg/mL (≈ 4.8 µM). In the assay on Escherichia coli [20], the result was inactive. Also, the IC50 in the assay on HepG2 and in the assay with Vero was above 200 µM in each case.
As for `CO[C@@]1(NC(=O)CCCC(=O)C2=C(O)[C@@H](CC(C)C)NC2=O)C(=O)N2C(C(=O)O)=C(CSc3nnnn3C)CS[C@@H]21`, the minimum inhibitory concentration (MIC) against Escherichia coli [1] was 50 µg/mL (≈ 82 µM); in the assay with Klebsiella pneumoniae [2], 100 µg/mL (≈ 164 µM); against Proteus mirabilis, 12.5 µg/mL (≈ 20.5 µM); in the assay on Escherichia coli [5] it was 100 µg/mL (≈ 164 µM); against Escherichia coli [6], above 200 µg/mL; against Klebsiella pneumoniae [7], above 200 µg/mL. The minimal inhibitory concentration (MIC) was above 200 µg/mL with Acinetobacter baumannii; 50 µg/mL (≈ 82 µM) against Escherichia coli [9]; 50 µg/mL (≈ 82 µM) with Klebsiella pneumoniae [10]; 200 µg/mL (≈ 328 µM) in the assay on Escherichia coli [11]; 12.5 µg/mL (≈ 20.5 µM) in the assay on Escherichia coli [12]; above 200 µg/mL with Escherichia coli [13]. For the same compound, the MIC against Escherichia coli [14] was above 200 µg/mL; in the assay on Klebsiella pneumoniae [15] it was 50 µg/mL (≈ 82 µM); in the assay on Escherichia coli [16], 100 µg/mL (≈ 164 µM); against Pseudomonas aeruginosa, above 200 µg/mL; against Escherichia coli [17], 200 µg/mL (≈ 328 µM); in the assay with Klebsiella pneumoniae [18] it was 200 µg/mL (≈ 328 µM). In the assay on Klebsiella pneumoniae [19], this compound showed a minimum inhibitory concentration (MIC) of 12.5 µg/mL (≈ 20.5 µM). In addition, in the assay on Escherichia coli [20], the outcome was inactive.
On to `CC(=O)OCC1=C(C(=O)O)N2C(=O)[C@@H](NC(=O)CCNC(=O)C3=C(O)C(CC(C)C)NC3=O)[C@H]2SC1` (stereo partly specified), for which the minimal inhibitory concentration (MIC) with Enterobacter cloacae is above 200 µg/mL; in the assay on Enterococcus faecalis, 200 µg/mL (≈ 381 µM); in the assay with Klebsiella pneumoniae [2], above 200 µg/mL; with Streptococcus pyogenes, 12.5 µg/mL (≈ 23.8 µM); against Staphylococcus aureus [3], 6.25 µg/mL (≈ 11.9 µM); against Streptococcus pneumoniae, 12.5 µg/mL (≈ 23.8 µM). Further, the MIC in [4] is above 200 µg/mL; in the assay with Proteus mirabilis it was 200 µg/mL (≈ 381 µM); with Bacillus anthracis it was 25 µg/mL (≈ 47.7 µM); against Acinetobacter baumannii, above 200 µg/mL; against Staphylococcus aureus [8] it was 6.25 µg/mL (≈ 11.9 µM); against Bacillus cereus, above 200 µg/mL. Besides, the MIC is above 200 µg/mL in the assay on Escherichia coli [9], above 200 µg/mL in the assay with Escherichia coli [12], 3.13 µg/mL (≈ 5.97 µM) with Bacillus subtilis and above 200 µg/mL against Pseudomonas aeruginosa. For the same compound, the Ratio result in the assay with Staphylococcus aureus [21], in the assay on Staphylococcus aureus [22], with Staphylococcus aureus [23] and with Staphylococcus aureus [24] was “>=16” each time.

(Values after ChEMBL document CHEMBL4229518, “New β-lactam - Tetramic acid hybrids show promising antibacterial activities” (Bioorg Med Chem Lett, 2018).)
